Test results taken from patent US20210113492A1, “METHOD FOR INHIBITING PROLIFERATION AND METASTASIS OF CANCER CELLS BY USING NAPHTHOQUINONE DERIVATIVE” (National Tsing Hua University, priority 2019, published 2021).
≈ marks a conversion by molar mass, not a printed value.

Columns and labels:
Assay type in all cases: cell-based
[1] = tested on: human primary glioblastoma cells (U87); test: Boyden chamber invasion assay, U87; conditions: 2.5, 5 and 10 μM, 24 h, no dose dependency (FIG. 2B)
Protocol: (§1) Cells were harvested by […] and resuspended in a serum-free medium with 0.1% BSA. Then, […] of cell suspension (2×10^5 cells) was seeded into the upper insert of SPLInsert with Polyethylene terephthalate (PET) membrane (pore size: 8.0 μm) (SPL Lifesciences, Korea) pre-coated with matrigel (BD Biosciences, San Jose, Calif.). The bottom well of 24-well plate of SPLInsert was filled with cell medium containing 10% FBS with different concentrations of isoplumbagin (5, 7.5 and 10 μM, Experimental group of oral squamous cell carcinoma cells (OC3-IV2); 2.5, 5 and 10 μM, Experimental groups of human primary glioblastoma cells (U87), human non-small cell lung carcinoma cells (H1299), human prostate cancer cells (PC3) and human cervical cancer cells (Hela)) or without isoplumbagin (DMSO added). […] Number of cells was counted using Image J. Relative invasion ability was calculated as cell number per area.
(§2) FIGS. 2A-2E show the inhibitory effect of different doses of isoplumbagin on invasion for oral squamous cell carcinoma cells (OC3-IV2), human primary glioblastoma cells (U87), human non-small cell lung carcinoma cells (H1299), prostate cancer cells (PC3) and cervical cancer cells (Hela) assessed with the Boyden chamber assays. *Compared with solvent control (DMSO). […]

[2] = tested on: human prostate cancer cells (PC3); test: Boyden chamber invasion assay, PC3; conditions: 2.5, 5 and 10 μM, 24 h, dose dependency (FIG. 2D)
Protocol: as §1, §2

[3] = tested on: human non-small cell lung carcinoma cells (H1299); test: MTT survival assay, H1299; conditions: NCI-H1299, 48 h, read-out: IC50, survival rate
Protocol: According to the present invention, human non-small cell lung carcinoma cell H1299 were obtained from ATCC (ATCC® CRL-5803™) cultured in Roswell Park Memorial Institute (RPMI) 1640 medium (Invitrogen) containing 10% FBS, 1% L-Gln and 1% AA. Cells were maintained in a humidified atmosphere containing 5% CO2 at 37° C., and the culture medium was replaced every 2 days.
(§3) Isoplumbagin (AKOS006277326, acquired from AKos GmbH, Steinen, Germany) was dissolved in dimethyl sulfoxide (DMSO) and added to the medium, so that the final concentration of DMSO was less than 0.1%. The survival rate of isoplumbagin on OC3-IV2, U87, H1299 and PC3 cell lines was determined using the 3-(4,5-dimethylthiazol-2-yl)-2,5-diphenyltetrazolium bromide (MTT; Sigma-Aldrich) assays. 3×10^3 cells/well were seeded in 96-well plates. After incubation for 24 h, cells were treated with isoplumbagin at various concentrations (0, 1, 5, 10, 25, 50 and 100 μM) and incubated for a further 48 h. At the end of treatment, 10 μL 5 mg/mL MTT was added to each well. After incubation at 37° C. for 3 h, medium was removed and DMSO was added to each well to dissolve reduced MTT product formazan. The absorbance of dissolved formazan was measured at 550 nm wavelengths by a spectrophotometer. […]

[4] = tested on: human non-small cell lung carcinoma cells (H1299); test: Boyden chamber invasion assay, H1299; conditions: 2.5, 5 and 10 μM, 24 h, dose dependency (FIG. 2C)
Protocol: as §1, §2

[5] = tested on: human prostate cancer cells (PC3); test: Mitochondrial morphology and distribution by immunofluorescence staining, PC3; conditions: 1 μM or 2.5 μM, 24 hours, anti-TOM20 staining
Protocol: The effects of isoplumbagin on mitochondrial morphology and distribution of OC3-IV2, U87, H1299 and PC3 cell lines were measured by immunofluorescence staining After OC3-IV2, U87, H1299, and PC3 cells were treated with DMSO, 1 μM, or 2.5 μM isoplumbagin for 24 hours, cells were fixed by 4% (v/v) paraformaldehyde and permeabilized by 0.1% (v/v) Triton X-100. Cells were incubated in blocking buffer containing 1% bovine serum albumin. After blocking, cells were incubated overnight with indicated primary antibodies against TOM20 (a mitochondria marker, sc-11415, Santa Cruz), and then incubated with Alexa Fluor 488-conjugated secondary antibodies (A11001, Invitrogen). Nucleus was stained with DAPI, actin was stained with rhodamine phalloidin (A12379, Invitrogen) and cells were mounted using Prolong Gold reagent (P36930, Invitrogen). 63 images were taken by LSM800 confocal microscopes (Zeiss).
FIGS. 5A-5D show the effect of isoplumbagin on mitochondrial morphogenesis and distribution of oral squamous cell carcinoma cells (OC3-IV2), human primary glioblastoma cells (U87), human non-small cell lung carcinoma cells (H1299) and human prostate cancer cells (PC3). Cells treated with either solvent control (DMSO) or isoplumbagin were determined by immunofluorescence staining using anti-TOM20 (mitochondria, green) antibody, rhodamine phalloidin (actin, red) and DAPI (nucleus, blue). […]

[6] = tested on: prostate cancer cells (PC3); test: MTT survival assay, PC3; conditions: Homo sapiens, 48 h, read-out: IC50, survival rate
Protocol: According to the present invention, human prostate cancer cell line PC3 cells were obtained from ATCC (ATCC® ^CRL-1435™) and maintained in DMEM medium supplemented with 10% FBS, 1% L-Gln and 1% AA. Cells were maintained in an atmosphere containing 5% CO2 at 37° C., and the culture medium was replaced every 2 days.
as §3

Compound: CC1=CC(=O)c2cccc(O)c2C1=O [isoplumbagin, 5-hydroxy-3-methyl-1,4-naphthoquinone]
- cancer cells migrating through the membrane (invasion) [1]: decrease significantly
- cancer cells migrating through the membrane (invasion) [2]: decrease significantly
- IC50 [3]: 0.28 µg/mL (≈ 1.49 µM)
- cancer cells migrating through the membrane (invasion) [4]: decrease significantly
- mitochondrial morphogenesis and distribution [5]: can alter the mitochondrial morphogenesis and distribution
- IC50 [6]: 1.13 µg/mL (≈ 6 µM)
